Molecules are shown by their SMILES.

For data set [1], the system named is FSaIIC murine fibrosarcoma. In words: Tumor growth delay with melphalan (time to 500 mm^3). The class given is in vivo, C3H mice. Particulars: melphalan 10 mg/kg i.p. plus 50 μl of 5 or 20 μg of ozone per ml of oxygen by tail vein injection, then 4 days; FIG. 8. The protocol:
8 week old male C3H mice were inoculated with 2×10^6 FSaIIC murine fibrosarcoma cells in the hind limb. When tumors reached a volume of 50 mm^3, animal were divided into 4 groups of 10 mice. Group I was untreated, Group II was administered a dose of 10 mg/kg melphalan by intraperitoneal injection. Group III was administered melphalan together with 50 μl of untreated syngeneic blood injected intramuscularly in the non-tumor bearing hind limb. Group IV was administered melphalan with 50 μl of syngeneic blood treated with 20 μl ozone/ml of oxygen. Following the initial melphalan injection, animals in Groups III and IV continued receiving intramuscular injections of 50 μl of untreated syngeneic blood, or 50 μl of syngeneic blood treated with 20 μl ozone/ml of oxygen, respectively for 4 days, one injection per day. All animals were observed until tumors attained a volume of 500 mm^3. The delay in tumor time to achieve 500 mm^3 volume is illustrated in FIG. 4.
8 week old male C3H mice were inoculated with 2×10^6 FSaIIC murine fibrosarcoma cells in the hind limb. When tumors reached a volume of 50 mm^3, animal were divided into 4 groups of 10 mice. Group I was untreated, Group II was administered a dose of 10 mg/kg melphalan by intraperitoneal injection. Group HI was administered melphalan together with an intramuscular injection of 1×10^6 syngeneic untreated mononuclear cells. […]

The nature of data set [2]: Tolerability of intravenous ozone in tumor bearing mice. It counts as in vivo, C3H mice. Particulars: 50 μl of 5 or 20 μg of ozone per ml of oxygen, tail vein, 5 daily injections, with melphalan. The protocol: In order to stress cells in vivo, ozone at 5 μg per ml of oxygen, or 20 μg per ml of oxygen was injected directly into the tail vein of tumor bearing mice. Such injections are performed by filling a 1 cc syringe with the indicated concentration of ozone in medical grade oxygen. The gas is slowly injected into the tail vein so not to induce embolism. Due to the high solubility of oxygen and ozone in blood, embolism formation is not usually a problem.
8 week old male C3H mice were inoculated with 2×10^6 FSaIIC murine fibrosarcoma cells in the hind limb. When tumors reached a volume of 50 mm^3, animal were divided into 4 groups of 10 mice. Group I was untreated, Group II was administered a dose of 10 mg/kg melphalan by intraperitoneal injection. Group III was administered melphalan together with 50 μl of 5 μg of ozone per ml of oxygen by tail vein injection. Group IV was administered melphalan with 50 μl of 20 μg of ozone per ml of oxygen by tail vein injection. Following the initial melphalan injection, animals in Groups III and IV continued receiving intravenous injections of 50 μl of 5 μg of ozone per ml of oxygen, or 50 μl of 20 μg of ozone per ml of oxygen, respectively for 4 days, one injection per day. All animals were observed until tumors attained a volume of 500 mm^3. The delay in tumor time to achieve […] volume is illustrated in FIG. 8.

Turning to `O=[O+][O-]` [intravenous ozone, ozone], the “delay in time to achieve 500 mm^3 tumor volume with melphalan” value in data set [1] was “increased the tumor inhibitory effects of melphalan”. For the same molecule, in data set [2], the tolerability entry is reported as “well tolerated”.

The values are drawn from patent US20050169944A1, “Increasing tumor oxygen content by administration of stressed cells” (priority 2002, published 2005).
